These results are taken from US20060276464A1, “Diarylsulfone sulfonamides and use thereof” (Wyeth, priority 2005, published 2006).

In this test the target is T1, SFRP-1 (Homo sapiens, UniProt Q8N474).
T1 sequence (Q8N474 32-314): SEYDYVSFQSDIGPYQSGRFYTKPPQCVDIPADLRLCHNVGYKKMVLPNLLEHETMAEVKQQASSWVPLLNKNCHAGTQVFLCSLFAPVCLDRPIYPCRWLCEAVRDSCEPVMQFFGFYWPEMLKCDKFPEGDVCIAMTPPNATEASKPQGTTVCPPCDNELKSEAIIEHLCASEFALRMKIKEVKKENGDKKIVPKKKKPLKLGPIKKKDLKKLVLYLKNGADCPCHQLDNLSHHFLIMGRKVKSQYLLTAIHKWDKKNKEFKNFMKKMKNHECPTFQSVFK
Description: Cell-based assay for in vitro measurement of SFRP-1/SARP2 antagonist activity (U2OS cells co-transfected with 16x TCF-tk-Luciferase reporter, Wnt and hSFRP-1).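 Further: U2OS cells co-transfected with a TCF-tk luciferase reporter, a Wnt vector, hSFRP-1 or empty vector and CMV-βgal, luciferase luminescence read in cell lysates alongside βgal activity.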 The note with it: U2OS. For orientation: Reporter assays use an easily measured gene product as a stand-in for the process of interest.

Where [1] appears, read: read-out: Fold Induction with SFRP-1, Conc 15 μM, with SFRP-1, fold induction over SFRP-1 control, single dose.
Where [2] appears, read: read-out: Fold Induction without SFRP-1, Conc 15 μM, without SFRP-1, single dose.

Where two headings read alike, the source gives them in different places.

In the case of `Cc1ccc(S(=O)(=O)c2ccc(N3CCCC3)cc2)cc1S(=O)(=O)NCCCn1ccnc1` [Example 305, N-[3-(1H-imidazol-1-yl)propyl]-2-methyl-5-[(4-pyrrolidin-1-ylphenyl)sulfonyl]benzenesulfonamide], the fold induction at 15 µM is, setting by setting: under setting [1], 1.8; under setting [2], 1.

In the case of `Cc1ccc(S(=O)(=O)NCCCn2ccnc2)cc1[S+]([O-])c1ccccc1` (stereo not shown) [Example 306, N-[3-(1H-imidazol-1-yl)propyl]-4-methyl-3-(phenylsulfinyl)benzenesulfonamide], the fold induction at 60 µM (read-out: Fold Induction with SFRP-1, Conc 60 μM, with SFRP-1, fold induction over SFRP-1 control, single dose) was 1.3 and the fold induction at 60 µM (read-out: Fold Induction without SFRP-1, Conc 60 μM, without SFRP-1, single dose) is 0.9.

`Cc1ccc(S(=O)(=O)c2ccc(F)cc2)cc1S(=O)(=O)NCCn1ccnc1` [Example 307, 5-[(4-fluorophenyl)sulfonyl]-N-[2-(1H-imidazol-1-yl)ethyl]-2-methylbenzenesulfonamide]: the fold induction at 15 µM is, setting by setting: under setting [1], 2.5; under setting [2], 0.9.

Take `Cc1ccc(S(=O)(=O)c2ccc(F)cc2)cc1S(=O)(=O)NC1CCOCC1` [Example 308, 5-[(4-fluorophenyl)sulfonyl]-2-methyl-N-tetrahydro-2H-pyran-4-ylbenzenesulfonamide]: the fold induction at 15 µM under setting [1] is 2.3 and the fold induction at 15 µM under setting [2] stood at 0.9.

As to `Cc1ccc(S(=O)(=O)c2ccc(F)cc2)cc1S(=O)(=O)NCCC1CCOCC1` [Example 309, 5-[(4-fluorophenyl)sulfonyl]-2-methyl-N-(2-tetrahydro-2H-pyran-4-ylethyl)benzenesulfonamide], the fold induction at 15 µM runs as follows: under setting [1], 1.9; under setting [2], 0.9.

With `Cc1ccc(S(=O)(=O)c2ccc(N3CCCCC3)cc2)cc1S(=O)(=O)NCCCn1ccnc1` [Example 312, N-[3-(1H-imidazol-1-yl)propyl]-2-methyl-5-[(4-piperidin-1-ylphenyl)sulfonyl]benzenesulfonamide], the fold induction at 15 µM under setting [1] is 1.6 and the fold induction at 15 µM under setting [2] was determined as 0.9.

As to `COc1ccc(S(=O)(=O)c2ccc(C)c(S(=O)(=O)NCCCn3ccnc3)c2)cc1` [Example 315, N-[3-(1H-imidazol-1-yl)propyl]-5-[(4-methoxyphenyl)sulfonyl]-2-methylbenzenesulfonamide], the fold induction at 15 µM is, setting by setting: under setting [1], 1.8; under setting [2], 1.3.

Turning to `COc1ccccc1S(=O)(=O)c1ccc(C)c(S(=O)(=O)NCCCn2ccnc2)c1` [Example 316, N-[3-(1H-imidazol-1-yl)propyl]-5-[(2-methoxyphenyl)sulfonyl]-2-methylbenzenesulfonamide], the fold induction at 15 µM is, setting by setting: under setting [1], 2.5; under setting [2], 1.1.

`Cc1ccc(S(=O)(=O)NCCCn2ccnc2)cc1S(=O)(=O)c1ccccc1` [Example 317, N-[3-(1H-imidazol-1-yl)propyl]-4-methyl-3-(phenylsulfonyl)benzenesulfonamide]: the fold induction at 15 µM under setting [1] turned out to be 1.2 and the fold induction at 15 µM under setting [2] was found to be 1.1.

Regarding `COc1cccc(S(=O)(=O)c2ccc(C)c(S(=O)(=O)NCCCn3ccnc3)c2)c1` [Example 323, N-[3-(1H-imidazol-1-yl)propyl]-5-[(3-methoxyphenyl)sulfonyl]-2-methylbenzenesulfonamide], the fold induction at 15 µM reads like this: under setting [1], 2.6; under setting [2], 0.9.

In the case of `Cc1cc(C)c(S(=O)(=O)c2ccccc2)cc1S(=O)(=O)NCCCn1ccnc1` [Example 325, N-[3-(1H-imidazol-1-yl)propyl]-2,4-dimethyl-5-(phenylsulfonyl)benzenesulfonamide], the fold induction at 15 µM by setting is: under setting [1], 3; under setting [2], 1.1.

`Cc1cc(C)c(S(=O)(=O)c2ccccc2)cc1S(=O)(=O)NCCc1ccccn1` [Example 326, 2,4-dimethyl-5-(phenylsulfonyl)-N-(2-pyridin-2-ylethyl)benzenesulfonamide]: the fold induction at 15 µM under setting [1] worked out at 2.4 and the fold induction at 15 µM under setting [2] turned out to be 1.

Turning to `Cc1cc(C)c(S(=O)(=O)c2ccccc2)cc1S(=O)(=O)NC1CCOCC1` [Example 327, 2,4-dimethyl-5-(phenylsulfonyl)-N-tetrahydro-2H-pyran-4-ylbenzenesulfonamide], the fold induction at 15 µM reads like this: under setting [1], 2.7; under setting [2], 1.

For the molecule `Cc1cc(C)c(S(=O)(=O)c2ccc(F)cc2)cc1S(=O)(=O)NCCCn1ccnc1` [Example 330, 5-[(4-fluorophenyl)sulfonyl]-N-[3-(1H-imidazol-1-yl)propyl]-2,4-dimethylbenzenesulfonamide], the fold induction at 15 µM worked out at 3.2 under setting [1] and 1.1 under setting [2].

For `Cc1cc(C)c(S(=O)(=O)c2ccc(F)cc2)cc1S(=O)(=O)NCCc1ccccn1` [Example 331, 5-[(4-fluorophenyl)sulfonyl]-2,4-dimethyl-N-(2-pyridin-2-ylethyl)benzenesulfonamide], the fold induction at 15 µM under setting [1] amounted to 2.3 and the fold induction at 15 µM under setting [2] came out at 1.1.

As to `Cc1cc(C)c(S(=O)(=O)c2ccc(F)cc2)cc1S(=O)(=O)NC1CCOCC1` [Example 332, 5-[(4-fluorophenyl)sulfonyl]-2,4-dimethyl-N-(tetrahydro-2H-pyran-4-yl)benzenesulfonamide], the fold induction at 15 µM under setting [1] was 3 and the fold induction at 15 µM under setting [2] turned out to be 1.

For the molecule `Cc1cc(C)c(S(=O)(=O)c2ccc(F)cc2)cc1S(=O)(=O)NCCC1CCOCC1` [Example 333, 5-[(4-fluorophenyl)sulfonyl]-2,4-dimethyl-N-[2-(tetrahydro-2H-pyran-4-yl)ethyl]benzenesulfonamide], the fold induction at 15 µM under setting [1] came to 1.7 and the fold induction at 15 µM under setting [2] was found to be 1.

`O=S(=O)(NCCc1ccccc1)c1cc(S(=O)(=O)c2ccccc2)ccc1Cl` [Example 334, 2-chloro-N-(2-phenylethyl)-5-(phenylsulfonyl)benzenesulfonamide]: the fold induction at 15 µM amounted to 1.5 under setting [1] and 1.2 under setting [2].

`O=S(=O)(NCCN1CCOCC1)c1cc(S(=O)(=O)c2ccccc2)ccc1Cl` [Example 335, 2-chloro-N-(2-morpholin-4-ylethyl)-5-(phenylsulfonyl)benzenesulfonamide]: the fold induction at 15 µM runs as follows: under setting [1], 2.2; under setting [2], 1.

On to `O=S(=O)(NCCCn1ccnc1)c1cc(S(=O)(=O)c2ccccc2)ccc1Cl` [Example 336, 2-chloro-N-[3-(1H-imidazol-1-yl)propyl]-5-(phenylsulfonyl)benzenesulfonamide], for which the fold induction at 15 µM by setting is: under setting [1], 2.8; under setting [2], 1.

In the case of `O=S(=O)(NCCc1ccccn1)c1cc(S(=O)(=O)c2ccccc2)ccc1Cl` [Example 337, 2-chloro-5-(phenylsulfonyl)-N-(2-pyridin-2-ylethyl)benzenesulfonamide], the fold induction at 15 µM amounted to 2.6 under setting [1] and 1.1 under setting [2].

As for `Cc1ccc(S(=O)(=O)c2ccc(C(C)C)cc2)cc1S(=O)(=O)NCCCn1ccnc1` [Example 338, N-[3-(1H-imidazol-1-yl)propyl]-5-[(4-isopropylphenyl)sulfonyl]-2-methylbenzenesulfonamide], the fold induction at 15 µM runs as follows: under setting [1], 1.2; under setting [2], 1.

`Cc1ccc(S(=O)(=O)c2ccc3ccccc3c2)cc1S(=O)(=O)NCCCn1ccnc1` [Example 339, N-[3-(1H-imidazol-1-yl)propyl]-2-methyl-5-(2-naphthylsulfonyl)benzenesulfonamide]: the fold induction at 15 µM under setting [1] was 2.6 and the fold induction at 15 µM under setting [2] worked out at 1.1.

For the molecule `Cc1ccc(S(=O)(=O)c2ccc(Cl)c(Cl)c2)cc1S(=O)(=O)NCCCn1ccnc1` [Example 340, 5-[(3,4-dichlorophenyl)sulfonyl]-N-[3-(1H-imidazol-1-yl)propyl]-2-methylbenzenesulfonamide], the fold induction at 15 µM is, setting by setting: under setting [1], 2.5; under setting [2], 1.

For the molecule `CC(C)(O)Cc1ccc(S(=O)(=O)c2ccccc2)cc1S(=O)(=O)NCCc1ccccc1` [Example 341, 2-(2-hydroxy-2-methylpropyl)-N-(2-phenylethyl)-5-(phenylsulfonyl)benzenesulfonamide], the fold induction at 15 µM under setting [1] stood at 1.5 and the fold induction at 15 µM under setting [2] came out at 1.1.

As to `Cc1ccc(S(=O)(=O)c2cccc(Cl)c2)cc1S(=O)(=O)NCCCn1ccnc1` [Example 342, 5-[(3-chlorophenyl)sulfonyl]-N-[3-(1H-imidazol-1-yl)propyl]-2-methylbenzenesulfonamide], the fold induction at 15 µM runs as follows: under setting [1], 3.3; under setting [2], 1.1.

Turning to `Cc1cc(C)cc(S(=O)(=O)c2ccc(C)c(S(=O)(=O)NCCCn3ccnc3)c2)c1` [Example 343, 5-[(3,5-dimethylphenyl)sulfonyl]-N-[3-(1H-imidazol-1-yl)propyl]-2-methylbenzenesulfonamide], the fold induction at 15 µM by setting is: under setting [1], 2.8; under setting [2], 1.

For `Cc1ccc(S(=O)(=O)c2cc(Cl)ccc2Cl)cc1S(=O)(=O)NCCCn1ccnc1` [Example 345, 5-[(2,5-dichlorophenyl)sulfonyl]-N-[3-(1H-imidazol-1-yl)propyl]-2-methylbenzenesulfonamide], the fold induction at 15 µM came out at 1.6 under setting [1] and 1 under setting [2].

Take `Cc1ccc([S+]([O-])c2ccccc2)cc1S(=O)(=O)NCCCn1ccnc1` (stereo not shown) [Example 346, N-[3-(1H-imidazol-1-yl)propyl]-2-methyl-5-(phenylsulfinyl)benzenesulfonamide]: the fold induction at 15 µM amounted to 2.4 under setting [1] and 1.3 under setting [2].
